Data: patent publication US5405861A, “Triazole compounds and antifungal compositions thereof” (Takeda Chemical Industries, Co., Ltd., priority 1989, dated 1995)
Where a name gives a salt, the structure may show the parent alone. Read-outs that look alike come from different tables or passages of the source.

What was measured:
[1] = system: Candida albicans (IFO 0538); test: Antifungal activity against Candida albicans, paper disc growth inhibition zone (Tables 5 and 6); type: cell-based; details: 28° C., 2 days incubation; for zone of inhibition at 1000 µg/mL: 48 h, read-out: Inhibition zone diameter
Method: The antifungal activities of the compounds (I) were evaluated by the following method: a sheet of filter paper disc (manufactured by Toyo Seisakusho, 8 mm in diameter) soaked in a 1000 μg/ml solution of a compound (I) in methanol was placed on an agar plate, which was incubated at 28° C. for 2 days, and the diameter of the growth inhibition zone around the filter paper disc was measured. The following culture media were used:
A: yeast nitrogen base agar medium
B: yeast nitrogen base agar medium (pH 7.0)

Candida albicans = test: Infection-preventing effect in experimental infection in mice, Method 1 (Table 7-1); type: in vivo, Crj:CDF1 mice; details: given 0 and 2 hours after infection, survival 7 days after infection, total dose
Method: Method 1 (Table 7-1): To 5-week-old Crj:CDF1 mice the minimum lethal dose of Candida albicans was inoculated intravenously. The test drug was given twice 0 and 2 hours after infection. The effectiveness of the drug was expressed in ED50 values calculated by the Reed and Muench method from the survival rate 7 days after infection. The ED50 values were calculated based on the total dose given on the two occasions.

[2] = pH 7, B medium (yeast nitrogen base agar, pH 7.0)
[3] = Candida albicans, sc, 168 h, s.c., read-out: ED50
[4] = Candida albicans, po, 168 h, p.o., read-out: ED50
[5] = A medium (yeast nitrogen base agar)

| SMILES | zone of inhibition at 1000 µg/mL [1, 2] [mm] | ED50 (Candida albicans; [3]) [mg/kg] | also measured |
| --- | --- | --- | --- |
| CCn1ccnc1CS[C@H](C)[C@](O)(Cn1cncn1)c1ccc(F)cc1F (relative stereo) [Compound 46] | 27 | 0.7 | – |
| C[C@H](S)[C@](O)(Cn1cncn1)c1ccc(F)cc1F (racemic) [Compound 60, (2RS,3SR)-2-(2,4-difluorophenyl)-3-mercapto-1-(1H-1,2,4-triazol-1-yl)-2-butanol] | 30 | > 4 | – |
| CSc1nnc(CS[C@H](C)[C@](O)(Cn2cncn2)c2ccc(F)cc2F)n1C (relative stereo) [Compound 34] | 30 | 3.2 | – |
| C[C@@H](SCc1ncnn1C)[C@](O)(Cn1cncn1)c1ccc(F)cc1F (relative stereo) [Compound 31] | 40 | 0.71 | – |
| C[C@@H](SCc1nccn1CC(F)(F)C(F)F)[C@](O)(Cn1cncn1)c1ccc(F)cc1F (relative stereo) [Compound 30] | 40 | – | – |
| Cc1oc(=O)oc1CS[C@H](C)[C@](O)(Cn1cncn1)c1ccc(F)cc1F [Compound 111] | 35 | 0.71 | ED50 (Candida albicans; [4]): 0.89 mg/kg |
| CC(n1cncn1)C(O)(CS)c1ccc(F)cc1F (single isomer, unassigned) [Compound 116, 2-(2,4-difluorophenyl)-1-mercapto-3-[(1H)-1,2,4-triazol-1-yl]-2-butanol] | – | – | Inhibition zone diameter ([1]; B medium (yeast nitrogen base agar, pH 7.0)): 30 mm; ED50 (Candida albicans; s.c.): > 4.0 mg/kg |
| CC(C)n1ccnc1CS[C@H](C)[C@](O)(Cn1cncn1)c1ccc(F)cc1F [Compound 102] | 35 | – | – |
| C[C@@H](SCc1cn(C)cn1)[C@](O)(Cn1cncn1)c1ccc(F)cc1F (relative stereo) [Compound 28] | 40 | 0.65 | – |
| Cc1oc(=O)oc1CS[C@H](C)[C@](O)(Cn1cncn1)c1ccc(F)cc1F (racemic) [Compound 56, (2RS,3RS)-2-(2,4-difluorophenyl)-3-(5-methyl-2-oxo-1,3-dioxol-4-yl)methylthio-1-(1H-1,2,4-triazol-1-yl)-2-butanol] | 30 | 2 | – |
| Cc1csc(CS[C@H](C)[C@](O)(Cn2cncn2)c2ccc(F)cc2F)n1 (relative stereo) [Compound 37] | 45 | 1.4 | – |
| C[C@@H](SCc1nccn1C1CC1)[C@](O)(Cn1cncn1)c1ccc(F)cc1F [Compound 110] | 40 | 0.35 | ED50 (Candida albicans; [4]): 0.35 mg/kg |
| C[C@@H](SCc1ncc2n1CCC2)[C@](O)(Cn1cncn1)c1ccc(F)cc1F (relative stereo) [Compound 35] | 33 | 0.71 | – |
| CC(SCC(O)(Cn1cncn1)c1ccc(F)cc1F)c1ccncc1 (stereo not shown) [Compound 9] | – | – | zone of inhibition at 1000 µg/mL [1, 5]: 21 mm |
| Cc1nnc(S[C@H](C)[C@](O)(Cn2cncn2)c2ccc(F)cc2F)s1 (relative stereo) [Compound 26] | 45 | 3.2 | – |
| Cn1ccnc1SCCSCC(O)(Cn1cncn1)c1ccc(F)cc1F (stereo not shown) [Compound 18] | 25 | – | – |
| C[C@@H](SCc1nc2c(s1)CCC2)[C@](O)(Cn1cncn1)c1ccc(F)cc1F (relative stereo) [Compound 25] | 40 | 3.2 | – |
| C[C@@H](SCc1cn2ccccc2n1)[C@](O)(Cn1cncn1)c1ccc(F)cc1F (relative stereo) [Compound 27] | 45 | – | – |
| C[C@@H](SCc1ncc2cnccn12)[C@](O)(Cn1cncn1)c1ccc(F)cc1F (relative stereo) [Compound 57, (2RS,3RS)-2-(2,4-difluorophenyl)-3-(imidazo[1,5-a]pyradin-3-yl)methylthio-1-(1H-1,2,4-triazol-1-yl)-2-butanol] | 30 | 0.5 | – |
| C[C@@H](SCc1nccs1)[C@](O)(Cn1cncn1)c1ccc(F)cc1F (relative stereo) [38(hydrochloride)] | – | 3.2 | – |
| C[C@@H](SCc1cn2ccccc2n1)[C@](O)(Cn1cncn1)c1ccc(F)cc1F (relative stereo) [27(hydrochloride)] | – | 3.2 | – |
| C[C@@H](SCc1nncn1C)[C@](O)(Cn1cncn1)c1ccc(F)cc1F (relative stereo) [Compound 33] | 20 | 0.45 | – |
| OC(CSCCc1ccncc1)(Cn1cncn1)c1ccc(F)cc1F (stereo not shown) [Compound 8] | – | – | zone of inhibition at 1000 µg/mL [1, 5]: 25 mm |
| C[C@@H](SCc1nccn1C(CF)CF)[C@](O)(Cn1cncn1)c1ccc(F)cc1F (relative stereo) [Compound 59] | 30 | 1.4 | – |
| Cn1ccnc1CSCCSCC(O)(Cn1cncn1)c1ccc(F)cc1F (stereo not shown) [Compound 17] | 25 | – | – |

| SMILES | zone of inhibition at 1000 µg/mL [1, 2] [mm] | ED50 (Candida albicans; [3]) [mg/kg] | also measured |
| --- | --- | --- | --- |
| OC(CSCCSc1ccncc1)(Cn1cncn1)c1ccc(F)cc1F (stereo not shown) [Compound 24] | 25 | – | – |
| C[C@@H](SCc1nccs1)[C@](O)(Cn1cncn1)c1ccc(F)cc1F (relative stereo) [Compound 38] | 47 | – | – |
| CC(C)C(=O)S[C@H](C)[C@](O)(Cn1cncn1)c1ccc(F)cc1F [Compound 62, (2R,3R)-2-(2,4-difluorophenyl)-3-isobutyrylthio-1-(1H-1,2,4-triazol-1-yl)-2-butanol] | 45 | 0.5 | ED50 (Candida albicans; [4]): 0.35 mg/kg |
| OC(CSCCSCc1ccncc1)(Cn1cncn1)c1ccc(F)cc1F (stereo not shown) [Compound 19] | 30 | – | – |
| C[C@@H](SCc1cncn1C)[C@](O)(Cn1cncn1)c1ccc(F)cc1F (racemic) [Compound 29, (2RS,3RS)-2-(2,4-difluorophenyl)-3-(1-methylimidazol-5-yl)methylthio-1-(1H-1,2,4-triazol-1-yl)-2-butanol] | 38 | 0.71 | – |
| CC(=O)S[C@@H](C)[C@](O)(Cn1cncn1)c1ccc(F)cc1F (relative stereo) [Compound 61] | 30 | – | – |
| C[C@@H](SCc1nccn1CC(F)F)[C@](O)(Cn1cncn1)c1ccc(F)cc1F (relative stereo) [Compound 54] | 25 | 0.5 | – |
| CC(n1cncn1)C(O)(CS)c1ccc(F)cc1F (single isomer, unassigned) [Compound 115, 2-(2,4-difluorophenyl)-1-mercapto-3-[(1H)-1,2,4-triazol-1-yl]-2-butanol] | 33 | > 4 | – |
| C[C@@H](SCc1nccn1C1CC1)[C@](O)(Cn1cncn1)c1ccc(F)cc1F (relative stereo) [Compound 55] | 30 | 0.5 | – |
| CC(C)n1ccnc1CS[C@H](C)[C@](O)(Cn1cncn1)c1ccc(F)cc1F (relative stereo) [Compound 47] | 25 | 0.7 | – |
| C[C@@H](S)[C@](O)(Cn1cncn1)c1ccc(F)cc1F (racemic) [Compound 39, (2RS,3RS)-2-(2,4-difluorophenyl)-3-mercapto-1-(1H-1,2,4-triazol-1-yl)-2-butanol] | 18 | 0.19 | ED50 (Candida albicans; [4]): 0.35 mg/kg |
| CC(=O)S[C@H](C)[C@](O)(Cn1cncn1)c1ccc(F)cc1F (relative stereo) [Compound 40] | 50 | 0.35 | – |
| C[C@@H](SCc1nccn1CC1CC1)[C@](O)(Cn1cncn1)c1ccc(F)cc1F (relative stereo) [Compound 51] | 28 | 2 | – |
| CCn1ccnc1CS[C@H](C)[C@](O)(Cn1cncn1)c1ccc(F)cc1F [Compound 101] | 38 | – | – |
| C[C@@H](SCCSCCn1cncn1)[C@](O)(Cn1cncn1)c1ccc(F)cc1F (relative stereo) [Compound 22] | 25 | – | – |
| C[C@H]([C@](O)(Cn1cncn1)c1ccc(F)cc1F)S(=O)(=O)CCn1cncn1 (relative stereo) [Compound 14] | – | – | zone of inhibition at 1000 µg/mL [1, 5]: 22 mm |
| CC(SCC(O)(Cn1cncn1)c1ccc(F)cc1F)c1ccncc1 (stereo not shown) [Compound 11] | – | – | Inhibition zone diameter [1, 5]: 24 mm |
| C[C@@H](SCc1nccn1CC(F)(F)C(F)F)[C@](O)(Cn1cncn1)c1ccc(F)cc1F (relative stereo) [30(hydrochloride)] | – | 0.88 | – |
| Cn1nnnc1SCCSCC(O)(Cn1cncn1)c1ccc(F)cc1F (stereo not shown) [Compound 20] | 25 | – | – |
| C[C@@H](SCCn1cncn1)[C@](O)(Cn1cncn1)c1ccc(F)cc1F (relative stereo) [Compound 13] | – | – | zone of inhibition at 1000 µg/mL [1, 5]: 34 mm |
| OC(CSCCSCCn1cncn1)(Cn1cncn1)c1ccc(F)cc1F (stereo not shown) [Compound 21] | 20 | – | – |
| C[C@@H](SCc1nccn1C)[C@](O)(Cn1cncn1)c1ccc(F)cc1F (relative stereo) [16(hydrochloride)] | – | – | ED50 (Candida albicans; [4]): 0.71 mg/kg |
| C[C@@H](SCc1nncn1C)[C@](O)(Cn1cncn1)c1ccc(F)cc1F [Compound 95] | 28 | – | – |
| OC(CSCCSCCn1ccnc1)(Cn1cncn1)c1ccc(F)cc1F (stereo not shown) [Compound 7] | – | – | zone of inhibition at 1000 µg/mL [1, 5]: 18 mm |
| C[C@@H](SCCSCCn1ccnc1)[C@](O)(Cn1cncn1)c1ccc(F)cc1F (relative stereo) [Compound 23] | 25 | – | – |
